Two compounds from patent US20190076555A1, “TUMOR TARGETING NANOAGENT FOR IMAGING AND FLUORESCENT GUIDED RESECTION OF TUMORS” (priority 2017, published 2019) can be followed below.

In one series the test system is U87 MG glioma cells. In words: Competition with binding of NIA to glioma cells by flow cytometry. More on the design: species or system human. The conditions noted are these: 5 μM NIA (100%) competed with 125 μM competitor. Background: In flow cytometry, cells or beads pass a laser one at a time.
Series [1] in a line: Absorbance spectra of free and conjugated ICG (600-900 nm). Format: physicochemical. The conditions noted are these: PBS pH7.4. As to the method: Absorbance of free and conjugated ICG was measured within a wavelength range of 600-900 nm. Stock solution of free ICG was prepared in DMSO at a concentration of 25 mM and sample was diluted in PBS, pH7.4. FIGS. 3A-3J illustrate absorbance spectra of free and conjugated ICG.

Ends that are not written are not given here.

Description for U87 MG glioma cells: FIG. 11C illustrates flow cytometry histogram for CTX (not fluorescent) competing with binding of NIA (content 5 μM CTXtot) at various concentrations of competing CTX. The following combinations were tested: PBS no ligand (solid line), NIA+125 μM CTX (dashed line), NIA+50 μM CTX (dotdashed line), NIA+5 μM (longdashed line), and NIA 5 μM (dash-twodotted line). […] The abscissa intercept indicates the maximum level of fluorescence decrease due to competition at extrapolated infinite concentrations of CTX.
The saturation curves in the insets were calculated as average fluorescence intensities as function of overall CTX, (CTXtot), concentrations. […] Each molecule of NIA contains on average 7.75 groups of CTX. […] Since the inhibitors are not fluorescence labeled, the inhibition would be indicated by the reduction of MFI if NIA is the competed ligand.

As for “P/LLL(40%): polymalic acid with tri-leucine (40%), not fluorescence labelled competitor (Leu-Leu-Leu; not fully specified)”, the “decrease in mean fluorescence intensity of NIA” value with U87 MG glioma cells was 41-46%. For `CC1(C)C(/C=C/C=C/C=C/C=C2\N(CCCCS(=O)(=O)O)c3ccc4ccccc4c3C2(C)C)=[N+](CCCCS(=O)(=O)[O-])c2ccc3ccccc3c21` [free ICG, Indocyanine Green], the values for the maximum absorbance wavelength in series [1] (high concentration 100 μM ICG) and in series [1] (lower concentration 3 μM ICG) were 695 nm and 780 nm, respectively.
